The source of these data is patent publication US7981903B2, “2-[2-{phenylamino}-1H-pyrrolo[2,3-D]pyrimidin-4-yl)amino] benzamide derivatives as IGF-1R inhibitors for the treatment of cancer” (GlaxoSmithKline LLC, priority 2007, dated 2011).

Type in all cases: biochemical
In one test the target is T1, human IGF1R (hIGF1R) (Homo sapiens, UniProt P08069).
T1 construct: containing amino acid residues 957-1367 of human IGF1R; made in house; host or cells: Sf9 cells (baculovirus)
Kind of test: TR-FRET kinase assay of purified hIGF1R. Conditions: activated hIGF1R 0.5 nM, 10 μM ATP, values given as pIC50 category, read-out: IGF-1R pIC50 (converted). As to the method:
(§1) Time Resolved Fluorescence Resonance Energy Transfer (TR-FRET) assays were carried out on the exemplified compounds as follows:
(§2) Purity is determined by HPLC. The calculated molecular mass of the peptide is 2216 dalton. Tyrosine phosphorylation by human IGF1R (hIGF1R) or human IR (hIR) occurs as indicated (Y*) in the peptide sequence described. Solid peptide sample is dissolved to approximately 1 mM in DMSO, aliquoted, and stored at −20° C. until use. True peptide concentration is determined by amino acid analysis.
hIGF1R: GST-rTEV-IGF-1R(957-1367) containing amino acid residues 957-1367 of human IGF1R (as annotated by National Center for Biotechnology Information (NCBI) accession number NP_000866) is purified from a baculovirus expression system in Sf9 cells using Glutathione Sepharose 4FF column chromatography followed by Sephadex-200 size exclusion column chromatography. […] Samples, in 25 mM Tris-HCl, 250 mM NaCl, 5% glycerol, 1 mM DTT, pH 7.5, are stored at −80° C. until use.
hIGF1R: Activation of GST-rTEV-IGF-1R(957-1367) is achieved by a 4 minute incubation of hIGF1R (2.7 μM final) with 2 mM ATP in 50 mM HEPES, 20 mM MgCL2, 0.1 mg/ml BSA, at room temperature. Autophosphorylation is stopped by addition of EDTA (to 100 mM final). Aliquoted samples are flash frozen in liquid nitrogen and stored at −80° C. until use.
(§3) Assays are performed in 384-well (Greiner, Catalog No. 784076) microtiter plates. Reaction buffer (50 mM HEPES buffer, pH 7.5; 10 mM MgCL2; 3 mM DTT; 1 mM CHAPS; 0.1 mg/ml BSA) for peptide phosphorylation (10 μl volume) contained, in final concentrations, 500 nM biotinylated peptide substrate; 10 μM ATP; and purified, activated hIGF1R or hIR (0.5 nM). Compounds, titrated in DMSO, are evaluated at eleven concentrations ranging from 50 μM to 0.2 nM. […] Reactions are incubated for 1 hour at room temperature and are stopped by a 5 μl addition of EDTA (to 33 mM). A further addition of 5 μl detection reagents (for final 7 nM Streptavidin-APC (Perkin Elmer #CR^130-150), 1 nM Europium-labeled anti-phosphotyrosine monoclonal antibody (PerkinElmer #AD0067), added in reaction buffer (without DTT), is required for signal generation. After 30 minutes, signal is read on PerkinElmer Viewlux microplate imager or Wallac Victor fluorometer.
(§4) The data for compound concentration responses were plotted as % Inhibition, calculated with the data reduction formula 100*(1-[(U1-C2)/(C1-C2)]), versus concentration of compound, where • U is the unknown value, • C1 is the average control value obtained for DMSO only, and • C2 is the average control value obtained for reactions stopped with EDTA at • t=0.
(§5) Data were fitted to the curve described by: y=((Vmax*x)/(K+x)) where • Vmax is the upper asymptote and • K is the IC50.
(In general: TR-FRET usually uses a lanthanide donor and a delayed reading to cut background.)

For a further test, the target named is T2, human IR (hIR) (Homo sapiens, UniProt P06213).
T2 construct: containing amino acid residues 979-1382 of human IR; made in house; host or cells: Sf9 cells (baculovirus), same process as hIGF1R
T2 sequence (P06213 979-1382): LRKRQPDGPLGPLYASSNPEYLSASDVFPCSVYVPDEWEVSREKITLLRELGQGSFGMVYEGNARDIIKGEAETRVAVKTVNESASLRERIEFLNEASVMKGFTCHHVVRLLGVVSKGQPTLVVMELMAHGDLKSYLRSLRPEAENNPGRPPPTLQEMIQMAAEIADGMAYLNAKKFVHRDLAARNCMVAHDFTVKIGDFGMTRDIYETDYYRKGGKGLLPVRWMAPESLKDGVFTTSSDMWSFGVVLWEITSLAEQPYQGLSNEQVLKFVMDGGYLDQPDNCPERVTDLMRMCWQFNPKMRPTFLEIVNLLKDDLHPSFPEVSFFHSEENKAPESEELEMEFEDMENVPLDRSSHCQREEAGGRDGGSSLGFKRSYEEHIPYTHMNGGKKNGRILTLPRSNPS
Kind of test: TR-FRET kinase assay of purified hIR. The settings on record: activated hIR 0.5 nM, 10 μM ATP, values given as pIC50 category. The protocol: as §1, §2
hIR: GST-rTEV-IR(979-1382) containing amino acid residues 979-1382 of human IR (as annotated by NCBI accession number NP_000199) is expressed and purified by the same process as hIGF1R. […] Samples, in 25 mM Tris-HCl, 250 mM NaCl, 5% glycerol, 1 mM DTT, pH 7.5, are stored at −80° C. until use.
hIR: Activation of GST-rTEV-IGF-1R(957-1367) is achieved by a 5 minute incubation of hIR (2.7 μM final) with 2 mM ATP in 100 mM HEPES, 10 mM MgCL2, 0.1 mg/ml BSA, at room temperature. Autophosphorylation is stopped by addition of EDTA (to 100 mM final). Aliquoted samples are flash frozen in liquid nitrogen and stored at −80° C. until use.
as §3, §4, §5

In another test the target is ALK (Homo sapiens, UniProt Q9UM73). As to the kind of experiment: ALK enzyme assay (HTRF). Conditions: 0.25 nM ALK, 15.0 μM ATP, values given as pIC50 category. The protocol:
The method measures the ability of the isolated enzyme to catalyse the transfer of the gamma-phosphate from ATP onto the tyrosine residue of a biotinylated synthetic peptide. The extent of tyrosine phosphorylation was measured using an anti-phosphotyrosine antibody, and quantified by homogenous time-resolved fluorescence (HTRF) assay purchased from CisBio (62TK0PEJ).
Reactions were performed in black 384-well polystyrene low volume plates in a final volume of 5 μl.
The reactions were then started by adding the substrate mix. The reactions were allowed to proceed for 120 minutes at 20° C. The reactions were then terminated by the addition of 5 μl HTRF detection mix to each well. The final concentrations of the detection reagents were: 50 mM HEPES (pH7.0); 0.1% BSA; 0.8 M KF; 20 mM EDTA; 1 mM CHAPS; TK-antibody Europium Cryptate; and 41 nM streptavidin-XL665. Assay plates were left unsealed, stacked and incubated at 20° for 60 minutes. Quantification of activity was achieved by counting in an Envision Counter (PerkinElmer).
Compounds under analysis were dissolved in Me2SO to 1.0 mM and serially diluted 1 to 3 with Me2SO through twelve dilutions. 0.05 μl of each concentration was transferred to the corresponding well of an assay plate. This creates a final compound concentration range from 0.00017 to 10 μM.
The data for dose responses were plotted as % Inhibition calculated with the data reduction formula 100*(1-(U1-C2)/(C1-C2)) versus concentration of compound where U is the unknown value, C1 is the average control value obtained for 1% DMSO, and C2 is the average control value obtained for 0.1 M EDTA. Data were fitted with a curve described by:
[formula] where A is the minimum y, B is the maximum y concentration [M], D is the slope factor, and x is the log10 of the compound.

pIC50: −log10 of the molar value.

T1 sequence (P08069 957-1367): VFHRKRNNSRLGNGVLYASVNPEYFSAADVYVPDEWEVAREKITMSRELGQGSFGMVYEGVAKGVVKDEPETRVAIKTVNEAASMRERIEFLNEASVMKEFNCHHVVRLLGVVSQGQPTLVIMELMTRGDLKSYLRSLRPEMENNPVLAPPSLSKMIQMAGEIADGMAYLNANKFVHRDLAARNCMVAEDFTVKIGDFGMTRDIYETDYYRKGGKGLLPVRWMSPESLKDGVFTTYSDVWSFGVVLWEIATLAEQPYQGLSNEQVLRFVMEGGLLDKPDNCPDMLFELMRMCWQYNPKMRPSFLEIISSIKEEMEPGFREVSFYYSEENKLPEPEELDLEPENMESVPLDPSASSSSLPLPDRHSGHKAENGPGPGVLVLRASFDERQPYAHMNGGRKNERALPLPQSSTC
Sequence of ALK (Q9UM73 19-1620): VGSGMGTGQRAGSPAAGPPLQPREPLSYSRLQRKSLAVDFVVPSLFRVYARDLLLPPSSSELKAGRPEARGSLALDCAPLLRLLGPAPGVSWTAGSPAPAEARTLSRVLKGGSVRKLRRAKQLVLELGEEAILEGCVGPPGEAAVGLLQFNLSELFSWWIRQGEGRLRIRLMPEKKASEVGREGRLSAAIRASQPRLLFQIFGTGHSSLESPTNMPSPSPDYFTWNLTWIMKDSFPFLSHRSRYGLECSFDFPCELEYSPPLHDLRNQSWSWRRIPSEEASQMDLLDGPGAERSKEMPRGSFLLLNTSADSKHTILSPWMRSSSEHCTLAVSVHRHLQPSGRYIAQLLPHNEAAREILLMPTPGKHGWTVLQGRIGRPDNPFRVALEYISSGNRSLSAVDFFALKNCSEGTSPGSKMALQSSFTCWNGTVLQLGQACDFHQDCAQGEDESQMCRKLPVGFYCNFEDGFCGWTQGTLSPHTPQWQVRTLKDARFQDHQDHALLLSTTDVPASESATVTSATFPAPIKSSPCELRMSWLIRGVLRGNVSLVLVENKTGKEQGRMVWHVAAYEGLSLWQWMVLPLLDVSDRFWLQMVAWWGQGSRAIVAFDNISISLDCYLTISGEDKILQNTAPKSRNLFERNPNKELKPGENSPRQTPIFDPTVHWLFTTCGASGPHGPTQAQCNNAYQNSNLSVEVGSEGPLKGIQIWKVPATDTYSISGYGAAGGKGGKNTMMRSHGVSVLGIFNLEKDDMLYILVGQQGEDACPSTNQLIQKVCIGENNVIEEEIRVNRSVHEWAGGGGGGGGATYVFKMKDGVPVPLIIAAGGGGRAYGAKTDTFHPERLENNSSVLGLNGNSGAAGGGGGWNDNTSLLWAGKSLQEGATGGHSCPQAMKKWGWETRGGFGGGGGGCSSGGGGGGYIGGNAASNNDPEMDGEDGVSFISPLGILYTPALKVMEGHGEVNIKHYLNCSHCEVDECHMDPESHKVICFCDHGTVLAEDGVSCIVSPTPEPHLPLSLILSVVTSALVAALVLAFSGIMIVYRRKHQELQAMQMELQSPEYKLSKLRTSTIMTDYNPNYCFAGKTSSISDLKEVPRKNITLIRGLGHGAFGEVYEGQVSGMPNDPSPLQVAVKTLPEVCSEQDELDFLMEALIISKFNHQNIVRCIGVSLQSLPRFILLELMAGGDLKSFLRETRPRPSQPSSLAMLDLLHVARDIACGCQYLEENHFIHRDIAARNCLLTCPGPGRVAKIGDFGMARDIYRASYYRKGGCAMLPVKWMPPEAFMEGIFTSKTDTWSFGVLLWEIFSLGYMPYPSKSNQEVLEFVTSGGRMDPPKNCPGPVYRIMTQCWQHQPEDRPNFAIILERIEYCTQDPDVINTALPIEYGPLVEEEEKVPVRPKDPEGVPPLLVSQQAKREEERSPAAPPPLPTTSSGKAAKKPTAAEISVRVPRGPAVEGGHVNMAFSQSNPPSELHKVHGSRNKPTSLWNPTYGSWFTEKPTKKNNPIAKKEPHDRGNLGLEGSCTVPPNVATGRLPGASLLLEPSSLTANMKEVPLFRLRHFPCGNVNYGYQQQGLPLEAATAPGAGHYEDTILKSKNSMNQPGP

Turning to `CNC(=O)c1c(F)cccc1Nc1nc(Nc2cc3c(cc2Cl)CCN3C(=O)CN(C)C)nc2[nH]ccc12` [Example 131, 2-[(2-{[5-chloro-1-(N,N-dimethylglycyl)-2,3-dihydro-1H-indol-6-yl]amino}-1H-pyrrolo[2,3-d]pyrimidin-4-yl)amino]-6-fluoro-N-methylbenzamide], at human IGF1R (hIGF1R), the IC50 is 1.26 to 3.98 nM. Moreover, the negative-log IC50 (pIC50) on human IR (hIR) and against ALK was 8.40 to 8.90 throughout.
Consider `CNC(=O)c1c(F)cccc1Nc1nc(Nc2cc3c(cc2OC)CCN3C(=O)CN2CCCC(O)C2)nc2[nH]ccc12` (centres unmarked) [Example 184, 2-fluoro-6-[(2-{[1-[(3-hydroxy-1-piperidinyl)acetyl]-5-(methyloxy)-2,3-dihydro-1H-indol-6-yl]amino}-1H-pyrrolo[2,3-d]pyrimidin-4-yl)amino]-N-methylbenzamide], for which the pIC50 (commonly the negative decadic logarithm of the IC50, by convention in mol/L) against ALK was 8.40 to 8.90.
`Cc1ccc(NC(=O)CN(C)C)cc1Nc1nc(Nc2ccccc2C(N)=O)c2cc[nH]c2n1` [Example 13, 2-{[2-({5-[(N,N-dimethylglycyl)amino]-2-methylphenyl}amino)-1H-pyrrolo[2,3-d]pyrimidin-4-yl]amino}benzamide]: the IC50 at human IGF1R (hIGF1R) was 1.26 to 3.98 nM. Also, the negative logarithm of the IC50 (pIC50) is 9.00 to 9.60 against human IR (hIR) and 8.40 to 8.90 against ALK.
The like results for `CNC(=O)c1c(F)cccc1Nc1nc(Nc2ccc3c(c2)N(C(=O)CN(C)C)CC3)nc2[nH]ccc12` [Example 130, 2-[(2-{[1-(N,N-dimethylglycyl)-2,3-dihydro-1H-indol-6-yl]amino}-1H-pyrrolo[2,3-d]pyrimidin-4-yl)amino]-6-fluoro-N-methylbenzamide] were, in that order, 5.01 to 200 nM, 6.80 to 8.30 and 6.70 to 8.30.
For `Cc1ccc(Nc2nc(Nc3cc(NC(=O)CN(C)C)ccc3C)nc3[nH]ccc23)c(C(N)=O)c1` [Example 34, 2-{[2-({5-[(N,N-dimethylglycyl)amino]-2-methylphenyl}amino)-1H-pyrrolo[2,3-d]pyrimidin-4-yl]amino}-5-methylbenzamide] the same measures were 5.01 to 200 nM, 8.40 to 8.90 and 6.70 to 8.30.
With `COc1ccc(CS(C)(=O)=O)cc1Nc1nc(Nc2ccccc2C(N)=O)c2cc[nH]c2n1` [Example 20, 2-{[2-({2-(methyloxy)-5-[(methylsulfonyl)methyl]phenyl}amino)-1H-pyrrolo[2,3-d]pyrimidin-4-yl]amino}benzamide], the IC50 on human IGF1R (hIGF1R) is 5.01 to 200 nM. The pIC50 against human IR (hIR) was 6.80 to 8.30; against ALK it was 6.70 to 8.30.
The like results for `CNC(=O)c1c(F)cccc1Nc1nc(Nc2cc3c(cc2OC)CCN3C(=O)[C@H]2CCCN2C)nc2[nH]ccc12` [Example 129, 2-fluoro-N-methyl-6-[(2-{[5-(methyloxy)-1-(1-methyl-D-prolyl)-2,3-dihydro-1H-indol-6-yl]amino}-1H-pyrrolo[2,3-d]pyrimidin-4-yl)amino]benzamide] were, in that order, 5.01 to 200 nM, 6.80 to 8.30 and 6.70 to 8.30.
In the case of `CCCN1CCC=C(c2ccc(Nc3nc(Nc4ccccc4C(N)=O)c4cc[nH]c4n3)c(C)c2)C1` [Example 1, 2-[(2-{[2-methyl-4-(1-propyl-1,2,5,6-tetrahydro-3-pyridinyl)phenyl]amino}-1H-pyrrolo[2,3-d]pyrimidin-4-yl)amino]benzamide], the IC50 at human IGF1R (hIGF1R) is 5.01 to 200 nM. Moreover, the negative logarithm of the IC50 (pIC50) was 6.80 to 8.30 against human IR (hIR) and 9.00 to 9.60 on ALK.
On to `CNC(=O)c1c(F)cccc1Nc1nc(Nc2cc3c(cc2OC)CCN3C(=O)CN2CCC(O)C2)nc2[nH]ccc12` (centres unmarked) [Example 182, 2-fluoro-6-[(2-{[1-[(3-hydroxy-1-pyrrolidinyl)acetyl]-5-(methyloxy)-2,3-dihydro-1H-indol-6-yl]amino}-1H-pyrrolo[2,3-d]pyrimidin-4-yl)amino]-N-methylbenzamide], for which, on ALK, the negative logarithm of the IC50 (pIC50) was 9.00 to 9.60.
On the same count and under the same terms, the figure for `COc1cc2c(cc1Nc1nc(Nc3cccc(F)c3C(N)=O)c3cc[nH]c3n1)N(C(=O)CN1CCCC(O)C1)CC2` (centres unmarked) [Example 183, 2-fluoro-6-[(2-{[1-[(3-hydroxy-1-piperidinyl)acetyl]-5-(methyloxy)-2,3-dihydro-1H-indol-6-yl]amino}-1H-pyrrolo[2,3-d]pyrimidin-4-yl)amino]benzamide] is 9.00 to 9.60.
For the compound `CCCN1CCC=C(c2ccc(Nc3nc(Nc4ccc(OC)cc4C(N)=O)c4cc[nH]c4n3)c(C)c2)C1` [Example 37, 5-(methyloxy)-2-[(2-{[2-methyl-4-(1-propyl-1,2,5,6-tetrahydro-3-pyridinyl)phenyl]amino}-1H-pyrrolo[2,3-d]pyrimidin-4-yl)amino]benzamide], on human IGF1R (hIGF1R), the IC50 is 5.01 to 200 nM. This compound also gave a pIC50 against ALK of 8.40 to 8.90.
On ALK, `COc1cc2c(cc1Nc1nc(Nc3ccccc3C(N)=O)c3cc[nH]c3n1)N(C(=O)CN(C)C)CC2` [Example 240, 2-[(2-{[1-(N,N-dimethylglycyl)-5-(methyloxy)-2,3-dihydro-1H-indol-6-yl]amino}-1H-pyrrolo[2,3-d]pyrimidin-4-yl)amino]benzamide] showed a pIC50 of 9.00 to 9.60.
On the same count and under the same terms, in the case of `CNC(=O)c1ccccc1Nc1nc(Nc2cc3c(cc2OC)CCN3C(=O)CN(C)C)nc2[nH]ccc12` [Example 241, 2-[(2-{[1-(N,N-dimethylglycyl)-5-(methyloxy)-2,3-dihydro-1H-indol-6-yl]amino}-1H-pyrrolo[2,3-d]pyrimidin-4-yl)amino]-N-methylbenzamide] it was 6.70 to 8.30; in that of `COc1cc2c(cc1Nc1nc(Nc3cccc(F)c3C(N)=O)c3cc[nH]c3n1)N(C(=O)CN1CCC(O)C1)CC2` (centres unmarked) [Example 181, 2-fluoro-6-[(2-{[1-[(3-hydroxy-1-pyrrolidinyl)acetyl]-5-(methyloxy)-2,3-dihydro-1H-indol-6-yl]amino}-1H-pyrrolo[2,3-d]pyrimidin-4-yl)amino]benzamide], 8.40 to 8.90.
